For 19 molecules, Kd, ED50 and Ki results are on record in patent publication US4505916A, “Method for the treatment of psychoneurotic states by administration of derivatives of 2-(4-piperidyl)-1-(4-quinolyl)-ethanone” (Pharmindustrie, priority 1979, dated 1985).

One assay deals with cerebral receiving sites of the benzodiazepines.
Assay: not given
As to conditions: 3H Diazepam; constant used in the formula for Ki; read-out: KD, constant of affinity; cited from earlier work.
As to `CN1C(=O)CN=C(c2ccccc2)c2cc(Cl)ccc21` [^3 H Diazepam], the Kd was 0.00274 µM.

A further assay relates to ventricular arhythmia caused by aconitine. The experiment in a line: Aconitine test on the rat (antiarhythmic activity). Conditions: iv. Type of assay: in vivo. The protocol: The antiarhythmic activity of the compounds of the present invention has been shown with the help of the aconitine test on the rat.
The principle of the technique rests on the induction time of the ventricular arhythmia caused by aconitine which slowly perfused in rats. An antiarhythmic substance retards the appearance of the arhythmia and the delay is proportional to the activity of the molecule.
Groups of 5 male rats are used. An individual anaesthesia is carried out (10% urethane: 1 g/kg/ip) to permit a catheterisation of the vein of the penis. The electrocardiogram is recorded. At the time T=0 the substance studied is injected in the form of an aqueous solution, at the rate of 2.5 ml of solution per kg in 30 seconds. At the time T=90 seconds, that is 1 minute after the end of the injection, the aconitine is perfused at the rate of 20 μg per minute until the appearance of supraventricular extra systoles. The time of perfusion of the aconitine is noted.
The results are expressed by an ED50 which is the dose in mg/kg increasing by 50% the time of perfusion of the aconitine in comparison with the perfusion time of aconitine for the control animals.
`C=C[C@H]1CNCC[C@H]1CCc1ccnc2ccc(OC)cc12` [Example 14, 6-METHOXY-4-{2-[3(R)-ETHENYL-4(R)-PIPERIDYL]-ETHYL}-QUINOLINE]: the 50% effect level (ED50) was put at a dose of 5 mg/kg.
Still for that read-out and setting: the same measure for `c1ccc(-c2cc(CCC3CCNCC3)c3ccccc3n2)cc1` [Example 16, 2-phenyl-4-[2-(4-piperidyl)-ethyl]-quinoline]: 1.3 mg/kg; for `C=C[C@@H]1CNCC[C@H]1CCc1ccnc2ccc(OC)cc12` [Example 26, 6-methoxy-4-{2-[3(S)-ethenyl-4(R)-piperidyl]-ethyl}-quinoline]: 2.6 mg/kg.

The next assay addresses cerebral receiving sites of the benzodiazepines. The assay is described as follows: Displacement of tritiated Diazepam from its binding site (method of MOHLER et al.). Further details: species or system rat. Conditions: displacement of tritiated Diazepam (3H Diazepam) from its binding site. The procedure:
The medicaments of the class of benzodiazepines are used as anticonvulsivants, as hypnotics and for the treatment of states of anxiety and of various psychoneurotic states for treatment of warm blooded mammals. The presence of specific receptors of the benzodiazepines in the membranes of the rat's brain has been shown [SQUIRES et al., Nature, 266, (1977), 732] and the degree of affinity of the benzodiazepines for these receptors, which is measured by their aptitude for displacing the tritiated Diazepam from its binding sites, is in good correlation with the pharmacodynamic effects observed on the animal and on man.
I--AFFINITY FOR THE CEREBRAL RECEIVING SITES OF THE BENZODIAZEPINES
The products have been tested according to the method of MOHLER et al, Life Science, 1977, 20, 2101, which is relied on herein.
The molecule `C=C[C@H]1CNCC[C@H]1CC(=O)c1ccnc2ccc(OC)cc12` [Example 3, 2-[3(R)-ethenyl-4(S)-piperidyl]-1-(6-methoxy-4-quinolyl)-ethanone] registered a Ki of 16 µM. That is a double-digit micromolar value.
Same read-out and setting: the figure for `O=C(CC1CCNCC1)c1cc(-c2ccccc2)nc2ccccc12` [Example 5, 1-(2-phenyl-4-quinolyl)-2-(4-piperidyl)-ethanone] is 0.5 µM; for `O=C(CC1CCNCC1)c1cc(-c2ccc(F)cc2)nc2ccccc12` [Example 6, 1-[2-(4-fluoro-phenyl)-4-quinolyl]-2-(4-piperidyl)-ethanone] it is 8 µM.
Same read-out and setting: the same measure for `O=C(CC1CCNCC1)c1cc(-c2ccc(Cl)cc2)nc2ccccc12` [Example 7, 1-[2-(4-CHLORO-PHENYL)-4-QUINOLYL]-2-(4-PIPERIDYL)-ETHANONE]: 4.5 µM; for `Cc1ccc(-c2cc(C(=O)CC3CCNCC3)c3ccccc3n2)cc1` [Example 8, 1-[2-(4-METHYL-PHENYL)-4-QUINOLYL]-2-(4-PIPERIDYL)-ETHANONE]: 1.6 µM.
`COc1ccc(-c2cc(C(=O)CC3CCNCC3)c3ccccc3n2)cc1` [Example 9, 1-[2-(4-methoxy-phenyl)-4-quinolyl]-2-(4-piperidyl)ethanone]: the Ki was 5 µM.
Still for that read-out and setting: the same measure for `C=C[C@H]1CNCC[C@H]1CC(=O)c1cc(-c2ccccc2)nc2ccccc12` [Example 11, 2-[3(R)-ethenyl-4(S)-piperidyl]-1-(2-phenyl-4-quinolyl)ethanone]: 2 µM.
Molecule `COc1ccc2nccc(CCC3CCNCC3)c2c1` [Example 13, 6-METHOXY-4-[2-(4-PIPERIDYL)-ETHYL]-QUINOLINE] showed a Ki of 7 µM. This Ki lies about 3.5-fold higher than the previous one.
On the same count and under the same terms, the same measure for `C=C[C@H]1CNCC[C@H]1CCc1ccnc2ccc(OC)cc12` [Example 14, 6-METHOXY-4-{2-[3(R)-ETHENYL-4(R)-PIPERIDYL]-ETHYL}-QUINOLINE]: 5 µM; for `c1ccc(-c2cc(CCC3CCNCC3)c3ccccc3n2)cc1` [Example 16, 2-phenyl-4-[2-(4-piperidyl)-ethyl]-quinoline]: 0.2 µM.
On the same count and under the same terms, the same measure for `Clc1ccc(-c2cc(CCC3CCNCC3)c3ccccc3n2)cc1` [Example 17, 2-(4-chloro-phenyl)-4-[2-(4-piperidyl)-ethyl]-quinoline]: 0.4 µM.
Same read-out and setting: the same measure for `COc1ccc(-c2cc(CCC3CCNCC3)c3ccccc3n2)cc1` [Example 18, 2-(4-METHOXY-PHENYL)-4-[2-(4-PIPERIDYL)-ETHYL]-QUINOLINE]: 1.3 µM; for `Cc1ccc(-c2cc(CCC3CCNCC3)c3ccccc3n2)cc1` [Example 19, 2-(4-METHYL-PHENYL)-4-[2-(4-PIPERIDYL)-ETHYL]-QUINOLINE]: 0.6 µM.
For `c1ccc(CCN2CCC(CCc3cc(-c4ccccc4)nc4ccccc34)CC2)cc1` [Example 22, 4-{2-[1-(2-phenyl-ethyl)-4-piperidyl]-ethyl}-2-phenyl-quinoline], the affinity, expressed as Ki, was 0.5 µM.
Same read-out and setting: the same measure for `CN1CCC(CCc2cc(-c3ccccc3)nc3ccccc23)CC1` [Example 23, 4-[2-(1-METHYL-4-PIPERIDYL)-ETHYL]-2-PHENYL-QUINOLINE]: 0.1 µM; for `c1ccc2c(CCC3CCNCC3)ccnc2c1` [Example 24, 4-[2-(4-piperidyl)-ethyl]-quinoline]: 13 µM; for `COc1ccc2nc(-c3ccccc3)cc(CCC3CCNCC3)c2c1` [Example 25, 6-methoxy-2-phenyl-4-[2-(4-piperidyl)-ethyl]-quinoline]: 11 µM.

The Kd is the free concentration of one partner at which half of the binding sites on the other are occupied at equilibrium, for simple one-to-one binding. The term ED50 denotes the midpoint of the dose-response relation. The term Ki denotes the dissociation constant of the complex between target and ligand, obtained from inhibition or displacement. Read a low Ki as tighter binding.
